# Measured values published in patent publication US11780839B2, “Compounds for treating Huntington's disease” (PTC THERAPEUTICS, INC., priority 2018, dated 2023).
# Test system: Endogenous Huntingtin Protein
# Test: Endogenous Huntingtin Protein Assay (ELISA-based Meso Scale Discovery electrochemiluminescence)
# Type: cell-based
# Conditions: MSD electrochemiluminescence, Table 1
# Procedure, shortened: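 Huntingtin was captured overnight at 4 °C on plates coated with 1 μg/mL MW1 (polyQ-expanded) or MAB2166 antibody and BSA-blocked. Detection used a rabbit monoclonal and then a SULFO-TAG goat anti-rabbit antibody (0.25 μg/mL, 1 h each, room temperature). Signal was read by electrochemiluminescence.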
row,Compound,IC50
1,"Oc1cc(-c2cn[nH]c2)ccc1-c1cnc(N2CCC(C3(NC4CCOCC4)CC3)C2)nn1 (stereo not drawn) [Cpd 421, 2-[3-(3-{1-[(oxan-4-yl)amino]cyclopropyl}pyrrolidin-1-yl)-1,2,4-triazin-6-yl]-5-(1H-pyrazol-4-yl)phenol]",≤ 100 nM
2,"Oc1cc(-c2cn[nH]c2)ccc1-c1cnc(N2CC[C@@H](CNC3CCOCC3)C2)nn1 [Cpd 397, 2-{3-[(3S)-3-{[(oxan-4-yl)amino]methyl}pyrrolidin-1-yl]-1,2,4-triazin-6-yl}-5-(1H-pyrazol-4-yl)phenol]",≤ 100 nM
3,"CC(C)(C)NC1CCN(c2ncc(-c3ccc(-c4c[nH]nc4C#N)cc3O)nn2)C1 (stereo not drawn) [Cpd 366, 4-(4-{3-[3-(tert-butylamino)pyrrolidin-l-yl]-1,2,4-triazin-6-yl]-3-hydroxyphenyl)-1H-pyrazole-3-carbonitrile]",≤ 100 nM
4,"CN(c1ncc(-c2ccc(-c3cc(CN)c4nccn4n3)cc2O)nn1)C1CC(C)(C)NC(C)(C)C1 [Cpd 351, 5-[8-(aminomethyl)imidazo[1,2-b]pyridazin-6-yl]-2-{3-[methyl(2,2,6,6-tetramethylpiperidin-4-yl)amino]-1,2,4-triazin-6-yl}phenol]",≤ 100 nM
5,"CN1CCC2(CC1)CN(c1ncc(-c3ccc(-n4ccnc4)cc3O)nn1)C2 [Cpd 231, 5-(1H-imidazol-1-yl)-2-[3-(7-methyl-2,7-diazaspiro[3.5]nonan-2-yl)-1,2,4-triazin-6-yl]phenol]",100 to 500 nM
6,"CC(=O)c1cn(-c2ccc(-c3cnc(N(C)C4CC(C)(C)NC(C)(C)C4)nn3)c(O)c2)cn1 [Cpd 140, 1-[1-(3-hydroxy-4-{3-[methyl(2,2,6,6-tetramethylpiperidin-4-yl)amino]-1,2,4-triazin-6-yl}phenyl)-1H-imidazol-4-yl]ethan-l-one]",≤ 100 nM
7,"CN(c1ncc(-c2ccc(-c3ccc4ncoc4c3)cc2O)nn1)C1CC(C)(C)NC(C)(C)C1 [Cpd 145, 5-(1,3-benzoxazol-6-yl)-2-{3-[methyl(2,2,6,6-tetramethylpiperidin-4-yl)amino]-1,2,4-triazin-6-yl}phenol]",≤ 100 nM
8,"Oc1cc(-c2cn[nH]c2)ccc1-c1cnc(N2CCC(CNC3CCC3)C2)nn1 (stereo not drawn) [Cpd 415, 2-(3-{3-[(cyclobutylamino)methyl]pyrrolidin-1-yl}-1,2,4-triazin-6-yl)-5-(1H-pyrazol-4-yl)phenol]",≤ 100 nM
9,"CN(c1cnc(-c2ccc(-c3ncccn3)cc2O)nn1)C1CC(C)(C)NC(C)(C)C1 [Cpd 402, 2-{6-[methyl(2,2,6,6-tetramethylpiperidin-4-yl)amino]-1,2,4-triazin-3-yl}-5-(pyrimidin-2-yl)phenol]",≤ 100 nM
10,"CC(C)(C)N[C@H]1CCN(c2ncc(-c3ccc(-c4c[nH]nc4F)cc3O)nn2)C1 [Cpd 378, 2-{3-[(3S)-3-(tert-butylamino)pyrrolidin-1-yl]-1,2,4-triazin-6-yl}-5-(3-fluoro-1H-pyrazol-4-yl)phenol]",≤ 100 nM
11,"CC1(C)CC(Nc2ncc(-c3ccc(-c4c[nH]nc4F)cc3O)nn2)CC(C)(C)N1 [Cpd 73, 5-(3-fluoro-1H-pyrazol-4-yl)-2-{3-[(2,2,6,6-tetramethylpiperidin-4-yl)amino]-1,2,4-triazin-6-yl}phenol]",≤ 100 nM
12,"Cn1cc(-c2ccc(-c3cnc(N4CCC(CNC5CCC5)C4)nn3)c(O)c2)cn1 (stereo not drawn) [Cpd 416, 2-(3-{3-[(cyclobutylamino)methyl}pyrrolidin-1-yl}-1,2,4-triazin-6-yl)-5-(1-methyl-1H-pyrazol-4-yl)phenol]",≤ 100 nM
13,"Cc1n[nH]cc1-c1ccc(-c2cnc(N3CCC(NC(C)(C)C)C3)nn2)c(O)c1 (stereo not drawn) [Cpd 375, 2-{3-[3-(tert-butylamino)pyrrolidin-1-yl]-1,2,4-triazin-6-yl}-5-(3-methyl-1H-pyrazol-4-yl)phenol]",≤ 100 nM
14,"CN(c1cnc(-c2ccc(-n3nccn3)cc2O)nn1)C1CC(C)(C)NC(C)(C)C1 [Cpd 255, 2-{6-[methyl(2,2,6,6-tetramethylpiperidin-4-yl)amino]-1,2,4-triazin-3-yl}-5-(2H-1,2,3-triazol-2-yl)phenol]",≤ 100 nM
15,CC(C)NC1CCN(c2ncc(-c3ccc(-c4cnn(C)c4)cc3O)nn2)C1 (stereo not drawn) [Cpd 203],≤ 100 nM
16,"Oc1cc(-c2cn[nH]c2)ccc1-c1cnc(N2CCC(NC3CCOCC3)C2)nn1 (stereo not drawn) [Cpd 335, 2-(3-{3-[(oxan-4-yl)amino]pyrrolidin-1-yl}-1,2,4-triazin-6-yl)-5-(1H-pyrazol-4-yl)phenol]",≤ 100 nM
17,"CN(c1ncc(-c2ccc(-c3n[nH]cc3F)cc2O)nn1)C1CC(C)(C)NC(C)(C)C1 [Cpd 156, 5-(4-fluoro-1H-pyrazol-3-yl)-2-{3-[methyl(2,2,6,6-tetramethylpiperidin-4-yl)amino]-1,2,4-triazin-6-yl}phenol]",≤ 100 nM
18,"CC1(C)C[C@@H](Nc2ncc(-c3ccc(-c4c[nH]nc4F)cc3O)nn2)[C@@H](F)C(C)(C)N1 [Cpd 189, 5-(3-fluoro-1H-pyrazol-4-yl)-2-(3-{[(3R,4R)-3-fluoro-2,2,6,6-tetramethylpiperidin-4-yl]amino}-1,2,4-triazin-6-yl)phenol]",≤ 100 nM

row,Compound,IC50
1,"CN(c1ncc(-c2ccc(-n3ccnc3)cc2O)nn1)C1CC(C)(C)NC(C)(C)C1 [Cpd 89, 5-(1H-imidazol-1-yl)-2-{3-[methyl(2,2,6,6-tetramethylpiperidin-4-yl)amino]-1,2,4-triazin-6-yl}phenol]",≤ 100 nM
2,"CN(c1ncc(-c2ccc(-c3cn[nH]c3)cc2O)nn1)C1CC(C)(C)NC(C)(C)C1 [Cpd 15, 2-{3-[methyl(2,2,6,6-tetramethylpiperidin-4-yl)amino]-1,2,4-triazin-6-yl}-5-(1H-pyrazol-4-yl)phenol]",≤ 100 nM
3,"CN(c1ncc(-c2ccc(-c3ccc4ncn(C)c4n3)cc2O)nn1)C1CC(C)(C)NC(C)(C)C1 [Cpd 163, 5-(3-methyl-3H-imidazo[4,5-b]pyridin-5-yl)-2-{3-[methyl(2,2,6,6-tetramethylpiperidin-4-yl)amino]-1,2,4-triazin-6-yl}phenol]",1000 to 3000 nM
4,"CN(c1ncc(-c2ccc(-c3cnc4[nH]ccc4n3)cc2O)nn1)C1CC(C)(C)NC(C)(C)C1 [Cpd 158, 2-{3-[methyl(2,2,6,6-tetramethylpiperidin-4-yl)amino]-1,2,4-triazin-6-yl}-5-(5H-pyrrolo[2,3-b]pyrazin-2-yl)phenol]",1000 to 3000 nM
5,"Oc1cc(-c2cn[nH]c2)ccc1-c1cnc(N2CCC(CNC3CCCOC3)C2)nn1 (stereo not drawn) [Cpd 404, 2-[3-(3-{[(oxan-3-yl)amino]methyl}pyrrolidin-1-yl)-1,2,4-triazin-6-yl]-5-(1H-pyrazol-4-yl)phenol]",≤ 100 nM
6,"Oc1cc(-c2cn[nH]c2)ccc1-c1cnc(N2CCC3(CCNC3)CC2)nn1 [Cpd 181, 2-[3-(2,8-diazaspiro[4.5]decan-8-yl)-1,2,4-triazin-6-yl]-5-(1H-pyrazol-4-yl)phenol]",> 500 nM
7,"CN(c1ncc(-c2ccc(-c3cn[nH]c3)cc2O)nn1)C1CCCNC1 (stereo not drawn) [Cpd 20, 2-{3-[methyl(piperidin-3-yl)amino]-1,2,4-triazin-6-yl}-5-(1H-pyrazol-4-yl)phenol]",> 500 nM
8,"Oc1cc(-c2cn[nH]c2)ccc1-c1cnc(N2CCN3CCC[C@H]3C2)nn1 [Cpd 116, 2-{3-[(8aS)-hexahydropyrrolo[1,2-a]pyrazin-2(1H)-yl]-1,2,4-triazin-6-yl}-5-(1H-pyrazol-4-yl)phenol]",100 to 500 nM
9,"Cc1cn(-c2ccc(-c3cnc(N(C)C4CC(C)(C)NC(C)(C)C4)nn3)c(O)c2)cn1 [Cpd 10, 5-(4-methyl-1H-imidazol-1-yl)-2-{3-[methyl(2,2,6,6-tetramethylpiperidin-4-yl)amino]-1,2,4-triazin-6-yl}phenol]",≤ 100 nM
10,"COc1cc(-c2ccc(-c3cnc(N(C)C4CC(C)(C)NC(C)(C)C4)nn3)c(O)c2)nn2ccnc12 [Cpd 304, 5-(8-methoxyimidazo[1,2-b]pyridazin-6-yl)-2-{3-[methyl(2,2,6,6-tetramethylpiperidin-4-yl)amino]-1,2,4-triazin-6-yl}phenol]",≤ 100 nM
11,"CO[C@H]1[C@@H](N(C)c2ncc(-c3ccc(-c4cn[nH]c4)cc3O)nn2)CC(C)(C)NC1(C)C [Cpd 293, 2-(3-{[(3S,4S)-3-methoxy-2,2,6,6-tetramethylpiperidin-4-yl](methyl)amino}-1,2,4-triazin-6-yl)-5-(1H-pyrazol-4-yl)phenol]",100 to 500 nM
12,"Oc1cc(-c2cn[nH]c2)ccc1-c1cnc(N2CC3(CCNCC3)C2)nn1 [Cpd 96, 2-[3-(2,7-diazaspiro[3.5]nonan-2-yl)-1,2,4-triazin-6-yl]-5-(1H-pyrazol-4-yl)phenol]",≤ 100 nM
13,"CCC(C)(CC)NC1CCN(c2ncc(-c3ccc(-c4cn[nH]c4)cc3O)nn2)C1 (stereo not drawn) [Cpd 170, 2-(3-{3-[(3-methylpentan-3-yl)amino]pyrrolidin-1-yl}-1,2,4-triazin-6-yl)-5-(1H-pyrazol-4-yl)phenol]",≤ 100 nM
14,"CN(c1ncc(-c2ccc(-c3ncccn3)cc2O)nn1)C1CC(C)(C)NC(C)(C)C1 [Cpd 85, 2-{3-[methyl(2,2,6,6-tetramethylpiperidin-4-yl)amino]-1,2,4-triazin-6-yl}-5-(pyrimidin-2-yl)phenol]",≤ 100 nM
15,"2-(3-{[(3S,4S)-3-fluoro-2,2,6,6-tetramethylpiperidin-4-yl]amino}-1,2,4-triazin-6-yl)-5-(1H-imidazol-1-yl)phenol [Cpd 238]",≤ 100 nM
16,"CN(c1ncc(-c2ccc(-c3cn[nH]c3)cc2O)nn1)C1C[C@H]2CC[C@@H](C1)N2 (stereo partly drawn) [Cpd 21, 2-(3-{[(1R,3S,5S)-8-azabicyclo[3.2.1]octan-3-yl](methyl)amino}-1,2,4-triazin-6-yl)-5-(1H-pyrazol-4-yl)phenol]",≤ 100 nM
17,"CN(c1ncc(-c2cc3cccnc3cc2O)nn1)C1CC(C)(C)NC(C)(C)C1 [Cpd 105, 6-{3-[methyl(2,2,6,6-tetramethylpiperidin-4-yl)amino]-1,2,4-triazin-6-yl}quinolin-7-ol]",100 to 500 nM
18,"Oc1cc(-c2cn[nH]c2)ccc1-c1cnc(N2CCC3(CNCCO3)C2)nn1 (stereo not drawn) [Cpd 353, 2-[3-(6-oxa-2,9-diazaspiro[4.5]decan-2-yl)-1,2,4-triazin-6-yl]-5-(1H-pyrazol-4-yl)phenol]",1000 to 3000 nM
